Broadly, the Cmax is the maximum level reached in the sampled fluid or tissue. As a reminder, the AUC is the area under the concentration-time curve, a measure of exposure. One may read the CC50 as the concentration that lowers cell viability or growth by half. Broadly, the half-life is how long it takes for the measured level to halve.

Activity calls are given as the source filed them. The calls are words filed in the database; no cut-off is given here. Where only a bound is given, the exact number is not on record here.

Data set [1] in a line: Cmax in African green monkey infected with SARS-CoV-2 assessed as prodrug conversion by measuring (2R,3R,4S,5R)-2-(4-aminopyrrolo[2,1-f][1,2,4]triazin-7-yl)-3,4-dihydroxy-5-(hydroxymethyl)tetrahydrofuran-2-carbonitrile at 10 mg/kg, iv qd administered for day 1 followed by 5 mg/kg administration measured after 6 days by LC-MS/MS analysis. Type of data set: ADME, organism-based, Severe acute respiratory syndrome coronavirus 2. Also noted: dose 10 mg/kg, time 6 day, route iv. The conditions noted are these: in vivo.

Data set [2] can be described thus: AUC(0 to 24 hrs) in African green monkey infected with SARS-CoV-2 assessed as prodrug conversion by measuring (2R,3R,4S,5R)-2-(4-aminopyrrolo[2,1-f][1,2,4]triazin-7-yl)-3,4-dihydroxy-5-(hydroxymethyl)tetrahydrofuran-2-carbonitrile at 10 mg/kg, iv qd administered for day 1 followed by 5 mg/kg administration measured after 6 days by LC-MS/MS analysis. Also noted: dose 10 mg/kg, time 6 day, route iv. The conditions noted are these: in vivo. Type of data set: ADME, organism-based, Severe acute respiratory syndrome coronavirus 2.

Data set [3] can be described thus: (§1) Cytotoxicity against stimulated human PBMC cells assessed as reduction in cell growth measured after 5 days by CellTiter-Glo assay. Type of data set: toxicity, cell-based. The conditions noted are these: stimulated PBMC, time 5 day. (In ATP-based viability assays light output follows the ATP content of the culture.)
Data set [4] can be described thus: (§2) Cytotoxicity against human HepG2 cells assessed as reduction in cell growth measured after 5 days by CellTiter-Glo assay. The class given is toxicity, cell-based. The conditions noted are these: HepG2 cells, time 5 day.
Data set [5] in a line: Stability of compound in cynomolgus monkey gastrointestinal S9 fraction assessed as half life at pH 7.4 measured upto 120 mins by LC-MS/MS analysis. Type of data set: ADME, subcellular, Macaca fascicularis, Gastrointestinal tract.
Data set [6] in a line: AUC(0 to 24 hrs) in dog assessed as prodrug conversion by measuring (2R,3R,4S,5R)-2-(4-aminopyrrolo[2,1-f][1,2,4]triazin-7-yl)-3,4-dihydroxy-5-(hydroxymethyl)tetrahydrofuran-2-carbonitrile at […], po measured upto 24 hrs by LC-MS/MS analysis. Type of data set: ADME, organism-based, Canis lupus familiaris. The settings on record: in vivo.
Data set [7] is described as follows: Stability of compound in dog plasma assessed as half life measured upto 4 hrs by LC-MS/MS analysis. The class given is ADME, cell-free, Canis lupus familiaris.
The nature of data set [8]: Drug metabolism in human NHBE-T cells assessed as Nucleotide triphosphate metabolite formation at 10 uM measured after 48 hrs by LC-MS analysis. Type of data set: ADME, cell-based.
A short description of data set [9]: Cmax in rat assessed as prodrug conversion by measuring (2R,3R,4S,5R)-2-(4-aminopyrrolo[2,1-f][1,2,4]triazin-7-yl)-3,4-dihydroxy-5-(hydroxymethyl)tetrahydrofuran-2-carbonitrile at 6 mg/kg, po measured upto 24 hrs by LC-MS/MS analysis. Type of data set: ADME, organism-based. Also noted: dose 6 mg/kg, time < 24 hrs, route po. The conditions noted are these: in vivo.

A short description of data set [10]: AUC(0 to 24 hrs) in African green monkey at […], po measured upto 24 hrs by LC-MS/MS analysis. The class given is ADME, organism-based. The conditions noted are these: chlorocebus sabaeus, in vivo.
A short description of data set [11]: Stability of compound in dog liver S9 fraction assessed as half life at pH 7.4 measured upto 90 mins by LC-MS/MS analysis. Type of data set: ADME, subcellular, Canis lupus familiaris.
The nature of data set [12]: AUC(0 to 24 hrs) in cynomolgus monkey at 11.7 mg/kg, po measured upto 24 hrs by LC-MS/MS analysis. Type of data set: ADME, organism-based, Macaca fascicularis. Also on record: dose 11.7 mg/kg, time < 24 hrs, route po. The settings on record: in vivo.
The nature of data set [13]: AUC(0 to 24 hrs) in rat assessed as prodrug conversion by measuring (2R,3R,4S,5R)-2-(4-aminopyrrolo[2,1-f][1,2,4]triazin-7-yl)-3,4-dihydroxy-5-(hydroxymethyl)tetrahydrofuran-2-carbonitrile at 6 mg/kg, po measured upto 24 hrs by LC-MS/MS analysis. Also on record: time < 24 hrs, dose 6 mg/kg, route po. The conditions noted are these: in vivo. Type of data set: ADME, organism-based.

A short description of data set [14]: Cmax in African green monkey assessed as prodrug conversion by measuring (2R,3R,4S,5R)-2-(4-aminopyrrolo[2,1-f][1,2,4]triazin-7-yl)-3,4-dihydroxy-5-(hydroxymethyl)tetrahydrofuran-2-carbonitrile at 60 mg/kg, po measured upto 24 hrs by LC-MS/MS analysis. Also on record: dose 60 mg/kg, time < 24 hrs, route po. The conditions noted are these: chlorocebus sabaeus, in vivo. The class given is ADME, organism-based.

Data set [15] is described as follows: Stability of compound in cynomolgus monkey plasma assessed as half life measured upto 4 hrs by LC-MS/MS analysis. Type of data set: ADME, cell-free, Macaca fascicularis.
A short description of data set [16]: Half life in cynomolgus monkey assessed as prodrug conversion by measuring (2R,3R,4S,5R)-2-(4-aminopyrrolo[2,1-f][1,2,4]triazin-7-yl)-3,4-dihydroxy-5-(hydroxymethyl)tetrahydrofuran-2-carbonitrile at 11.7 mg/kg, po measured upto 24 hrs by LC-MS/MS analysis. Type of data set: ADME, organism-based, Macaca fascicularis. The settings on record: in vivo.
The next data set has as its system PBMC. Described as §1. Type of data set: toxicity, cell-based. The conditions noted are these: pbmc, 120 h, time 5 day.
Data set [17] is described as follows: Half life in African green monkey assessed as prodrug conversion by measuring (2R,3R,4S,5R)-2-(4-aminopyrrolo[2,1-f][1,2,4]triazin-7-yl)-3,4-dihydroxy-5-(hydroxymethyl)tetrahydrofuran-2-carbonitrile at 86.5 mg/kg, po measured upto 24 hrs by LC-MS/MS analysis. Type of data set: ADME, organism-based. The settings on record: chlorocebus sabaeus, in vivo.
A short description of data set [18]: Aqueous stability of the compound assessed as compound remaining at pH 2 measured at 24 hrs by UPLC analysis. The class given is physicochemical. The settings on record: aqueous solution, read-out: Stability.
Data set [19] can be described thus: Stability of compound in human liver S9 fraction assessed as half life at pH 7.4 measured upto 90 mins by LC-MS/MS analysis. Type of data set: ADME, subcellular.
A short description of data set [20]: Oral bioavailability in African green monkey assessed as prodrug conversion by measuring (2R,3R,4S,5R)-2-(4-aminopyrrolo[2,1-f][1,2,4]triazin-7-yl)-3,4-dihydroxy-5-(hydroxymethyl)tetrahydrofuran-2-carbonitrile at 86.5 mg/kg measured upto 24 hrs by LC-MS/MS analysis. The class given is ADME, organism-based. The conditions noted are these: chlorocebus sabaeus, in vivo.

In a further data set the test system is SARS-CoV-2. Kind of data set: Antiviral activity against SARS-CoV-2 infected in African green monkey assessed as reduction in genomic RNA load in BALF at 60 to 120 mg/kg, po qd administered for 6 days starting from 8 hrs post infection by RT-qPCR analysis. The settings on record: Severe acute respiratory syndrome coronavirus 2, dose lower 60.0 mg/kg, dose upper […], time 6.0 day. The class given is functional, organism-based.

A further data set has as its system HepG2. The description is as §2. Type of data set: toxicity, cell-based. The conditions noted are these: hepg2, 120 h, time 5 day.
Data set [21] in a line: AUC(0 to 24 hrs) in African green monkey assessed as prodrug conversion by measuring (2R,3R,4S,5R)-2-(4-aminopyrrolo[2,1-f][1,2,4]triazin-7-yl)-3,4-dihydroxy-5-(hydroxymethyl)tetrahydrofuran-2-carbonitrile at 86.5 mg/kg, po measured upto 24 hrs by LC-MS/MS analysis. The conditions noted are these: chlorocebus sabaeus, in vivo. Also noted: dose 86.5 mg/kg, time < 24 hrs, route po. The class given is ADME, organism-based.

Data set [22] can be described thus: Prodrug conversion in SARS-CoV-2 infected in African green monkey assessed as (2R,3R,4S,5R)-2-(4-aminopyrrolo[2,1-f][1,2,4]triazin-7-yl)-3,4-dihydroxy-5-(hydroxymethyl)tetrahydrofuran-2-carbonitrile mediated log10 reduction of genomic RNA at 60 mg/kg, po qd measured after 6 days by RT-qPCR analysis. The class given is ADME, organism-based, Severe acute respiratory syndrome coronavirus 2. The conditions noted are these: in vivo, time 6 day. A general note: Quantitative PCR measures a nucleic acid by following its amplification.

A short description of data set [23]: AUC(0 to 24 hrs) in rat at 1 mg/kg, iv measured upto 24 hrs by LC-MS/MS analysis. The class given is ADME, organism-based. Also noted: dose 1 mg/kg, time < 24 hrs, route iv. The settings on record: in vivo.
Data set [24] is described as follows: Prodrug conversion in cynomolgus monkey assessed as Nucleotide triphosphate metabolite formation in lung at 20 mg/kg, iv measured upto 24 hrs by LC-MS/MS analysis. Type of data set: ADME, organism-based, Macaca fascicularis. The settings on record: in vivo.

Turning to `CCC(CC)COC(=O)[C@H](C)N[P@](=O)(OC[C@H]1O[C@@](C#N)(c2ccc3c(N)ncnn23)[C@H](O)[C@@H]1O)Oc1ccccc1`, the Cmax in data set [1] turned out to be 1230 nM. The AUC in data set [2] was determined as 7.9 µM·h. The CC50 at 120 h in data set [3] is 14.8 µM; in data set [4], 11.1 µM.
Take `CC(C)C(=O)OC[C@H]1O[C@@](C#N)(c2ccc3c(N)ncnn23)[C@H](O)[C@@H]1O` [OBELDESIVIR]: the figures for the half-life in data set [5], in data set [7] and in data set [15] were below 2 min, 412 min and 9.7 min, respectively. Further, the exposure (AUC) in data set [6] is 202 µM·h; in [10], 0.02 µM·h; in data set [12], 0.01 µM·h; in data set [13] it was 7.57 µM·h; in [21], 136 µM·h. Further, in data set [8], the Drug metabolism result was “Metabolite_Detected”. Also, the Cmax in data set [9] came to 2100 nM; in data set [14], 22500 nM. Also, the results for the half-life at […] in [11] and in data set [19] were 4.3 min and below 2 min, respectively. The t1/2 was determined as 157 min in data set [16] and 179 min in data set [17]. Moreover, the CC50 with PBMC was above 100 µM; in the data set on HepG2, 71 µM. For the same compound, in data set [18], the remaining at 24 h was at least 94%. Besides, the F in data set [20] was 27%. Also, in the data set on SARS-CoV-2, the result was Active. In addition, the “log(activity)” value in data set [22] is on record as -1.41.
On to `N#C[C@@]1(c2ccc3c(N)ncnn23)O[C@H](CO)[C@@H](O)[C@H]1O` [GS-441524], for which the AUC in data set [23] was 2.5 µM·h. In addition, the Drug metabolism in data set [24] was 0.41 nmol/g.

Source of the values: ChEMBL document CHEMBL5321279 (J Med Chem, 2023).
